PubChem BioAssay AID720632 (Broad Institute, 2013)
Calls of active or inactive are those of the source. No rule for the calls is given here.

Biological target: Caspase-6 (Homo sapiens) (UniProt P55212)
Experiment: inhibition of CASP6 peptide cleavage – biochemical, VEID-R110 fluorescence, cherry-pick, dose response (AID 720632)
Details: caspase-6, VEID-R110 fluorogenic substrate

Chain of Caspase-6 (Homo sapiens) (P55212 24-179 limits assumed): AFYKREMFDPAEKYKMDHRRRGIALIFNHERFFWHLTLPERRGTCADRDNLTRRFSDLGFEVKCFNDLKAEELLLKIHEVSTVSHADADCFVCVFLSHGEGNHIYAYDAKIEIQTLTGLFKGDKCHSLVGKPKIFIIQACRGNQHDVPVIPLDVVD
Chain of Caspase-6 (Homo sapiens) (P55212 194-293 limits assumed): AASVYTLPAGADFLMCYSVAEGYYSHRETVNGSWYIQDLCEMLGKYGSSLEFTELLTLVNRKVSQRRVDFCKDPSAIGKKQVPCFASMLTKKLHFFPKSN

SMILES	activity change, negative = inhibition (at 26 µM (top of the series))	also measured
Cc1cc(NC(=O)C23CC4CC(C2)CC(n2cnc([N+](=O)[O-])n2)(C4)C3)no1	inactive	
Cc1cc(C)nc(N2CCN(S(=O)(=O)c3ccc(F)cc3)CC2)n1	inactive	
CCc1ccc(NS(=O)(=O)c2cc(OC)ccc2OC)cc1	inactive	
CCCC(=O)n1nc(-c2cccnc2)nc1NCc1ccc(OC)cc1	inactive	
CC(C)CCn1c(=O)c2ccccc2n2c(CCC(=O)NCC3CCCO3)nnc12 (stereo unspecified)	inactive	
CCC(=O)Nc1ccc2c(c1)OC[C@H](C)N(C(=O)CC)C[C@@H](C)[C@@H](OC)CN(C)C2=O	inactive	
Cn1c(=O)[nH]c(=O)c2c1nc(CN1CCOCC1)n2Cc1ccccc1	inactive	
Nc1cccnc1Oc1ccc(F)cc1F	inactive	
COc1cccc(C(NC(=O)C2CCN(CCCOc3ccccc3)CC2)c2ccccn2)c1 (stereo unspecified)	inactive	
CC1CCc2[nH]c3ccc(C(=O)O)cc3c2C1 (stereo unspecified)	inactive	
O=C(NC(=S)NNS(=O)(=O)c1ccccc1)c1ccccc1[N+](=O)[O-]	inactive	
NC[C@H](O)c1ccc(O)c(O)c1	inactive	
CCN(CC)c1c([N+](=O)[O-])c(=O)n(CC)c2ccccc12	inactive	
OC(c1ccc(F)cc1)c1ncc(-c2ccccc2F)[nH]1 (stereo unspecified)	inactive	
CC(C)(C)NC(=O)C(=O)NN=C1CCCCCCCCCCC1	inactive	
O=C(OCc1ccccc1)N1CCCC2CC1c1ccccc12 (stereo unspecified)	inactive	
CN=C(Nc1cccnc1)c1cccc(C(F)(F)F)c1	inactive	
CCCC(=O)Nc1ccc2c(c1)OC[C@H](C)NC[C@@H](C)[C@@H](OC)CN(C)C2=O	inactive	
Cc1ccc2oc(C(=O)N(Cc3ccc(N(C)C)cc3)C3CCS(=O)(=O)C3)c(C)c2c1 (stereo unspecified)	inactive	
CC(=O)N1c2ccc(S(=O)(=O)N(C)CC(=O)NCc3ccc(C)cc3)cc2CC1C (stereo unspecified)	inactive	
Oc1cc(Nc2cccnc2)cc2cccnc12	inactive	
CO[C@@H]1CN(C)C(=O)c2ccc(NC(=O)C3CC3)cc2OC[C@@H](C)N(CC2CCOCC2)C[C@@H]1C	inactive	

SMILES	activity change, negative = inhibition (at 26 µM (top of the series))	also measured
Nc1ccccc1Sc1ccc(C(=O)c2ccccc2C(=O)O)cc1[N+](=O)[O-]	inactive	
CO[C@H]1CN(C)C(=O)c2ccc(NC(=O)C3CC3)cc2OC[C@H](C)N(Cc2cccc(F)c2)C[C@H]1C	inactive	
Cc1onc(NC(=O)NC(=O)c2c(F)cccc2Cl)c1Br	inactive	
OCc1ccccc1-c1nc(NCc2ccccc2)nc2ccsc12	inactive	
NN1C(=O)/C(=C2/Sc3ccccc3N2CCCS(=O)(=O)O)SC1=S	inactive	
COCC(=O)Nc1ccc2c(c1)OC[C@@H](C)N(CC1CC1)C[C@@H](C)[C@H](OC)CN(C)C2=O	inactive	
COc1cc(CNC(C)c2ccccc2)c(Br)cc1OCC(N)=O (stereo unspecified)	inactive	
Cc1csc(=O)n1CCC(=O)OCc1nnc(-c2ccc([N+](=O)[O-])cc2)o1	inactive	
Cc1ccc(C(=O)N/N=C\c2ccc(OC(=O)c3cccc(F)c3)cc2)cn1	inactive	
O=C(Cc1ccccn1)NCC[C@@H]1CC[C@@H](NC(=O)c2ccccc2F)[C@H](CO)O1	inactive	
CC1(C)C(=O)Nc2ccccc2N1C(=O)COC(=O)c1ccc([N+](=O)[O-])o1	inactive	
CCc1noc(C)c1C(=O)Nc1ccc(S(=O)(=O)N2CCCC(C)C2)cc1 (stereo unspecified)	inactive	
CCC(NS(=O)(=O)c1ccc(C)cc1)C(=O)N1CCOCCOCCOCC1 (stereo unspecified)	inactive	
COc1ccc(CCNC(=O)c2c(C)noc2C)cc1	inactive	
O=C(Nc1ccc(NC(=O)C2CC2)cc1)c1cccs1	inactive	
COC(=O)[C@H]1[C@H](CO)[C@H]2Cn3c(cccc3=O)[C@H]2N1CC1CCOCC1	inactive	
Cc1ccc(C)c(N2N=C(C(=O)OCc3nnc(-c4ccccc4Br)o3)CCC2=O)c1	inactive	
COc1cccc(/C=N/Nc2nc(C)cc(=O)[nH]2)c1OC	inactive	
CO[C@H]1CN(C)C(=O)c2ccc(NC(=O)c3ccccc3)cc2OC[C@@H](C)N(C(=O)C2CC2)C[C@H]1C		activity change, negative = inhibition (at 23.5 µM (top of the series)): inactive
CCOC(=O)N1CCN(C(=O)CN(C)S(=O)(=O)c2ccc3c(c2)c(=O)n(C)c(=O)n3C)CC1	inactive	
CC1CCN(CCCNC(=O)COc2cc(=O)n(C)c3ccccc23)CC1	inactive	
CN1CCN(NC(=O)Nc2ccc(F)cc2)CC1	inactive	

SMILES	activity change, negative = inhibition (at 26 µM (top of the series))	also measured
COc1cccc(NC(=O)CC(=O)c2ccc([N+](=O)[O-])cc2)c1	inactive	
CCOC(=O)C1CCCN(S(=O)(=O)c2nc3nc(C)cc(C)n3n2)C1 (stereo unspecified)	inactive	
CCOC(=O)[C@H]1[C@H]2COc3ccc(Cl)cc3[C@@H]2N2C(=O)CN(Cc3ccc(C)cc3)C(=O)[C@@]12C	inactive	
COCCNc1nc(Nc2ccccc2Cl)c2sc(-c3ccccc3)cc2n1	inactive	
Cc1cccc(C)c1OCc1nc2ccccc2[nH]1	inactive	
CN(C)c1ccc2c(c1)[C@@H]1C[C@@H](CC(=O)NCc3ccccn3)O[C@@H](CO)[C@@H]1O2	inactive	
CCOC(=O)CC1C(=O)NCCN1S(=O)(=O)c1cccc(C(F)(F)F)c1 (stereo unspecified)	inactive	
OC[C@H]1[C@H](c2ccc(-c3ccc(F)cc3)cc2)[C@@H]2CN(Cc3cccnc3)CCCCN12	inactive	
O=C(NC1CC2CCC(C1)N2Cc1ccccc1)c1ccccc1Br (stereo unspecified)	inactive	
CO[C@@H]1CN(C)C(=O)c2ccc(NC(C)=O)cc2OC[C@@H](C)NC[C@@H]1C	inactive	
CC(CN1CCCCC1)C(=O)NNC(=O)C12CC3CC(CC(C3)C1)C2 (stereo unspecified)	inactive	
O=C(CNc1cccc(S(=O)(=O)N2CCCC2)c1)Nc1cccc(Br)c1	inactive	
Cc1cc2c(NC(=O)Nc3ccc(C(F)(F)F)cc3)cccc2nn1	inactive	
COc1ccccc1C(=O)Nc1ccc2c(c1)OC[C@@H](C)N(CC1CC1)C[C@H](C)[C@@H](OC)CN(C)C2=O	inactive	
O=C(NCc1ccncc1)c1ccc(OCc2ccccc2)cc1	inactive	
Cc1ccccc1OC1(C)CCN(Cc2ccc(-c3ccccn3)cc2)C1 (stereo unspecified)	inactive	
O=C(CC1C(=O)NCCN1Cc1cccc(F)c1F)NCCCC1CCCC1 (stereo unspecified)	inactive	
OC[C@H]1[C@H](c2ccc(-c3ccccc3F)cc2)[C@H]2CN(Cc3cccnc3)CCCCN21	inactive	
O=C(NCC(c1ccco1)N1CCc2ccccc21)c1ccc([N+](=O)[O-])cc1 (stereo unspecified)	inactive	
CCCN1C[C@H](C)[C@H](OC)CN(C)C(=O)c2ccc(NC(=O)c3ccccc3)cc2OC[C@H]1C	inactive	
CCC(C)Nc1nc2c(C)cccn2c(=O)c1C=Nc1ccc(OC)cc1 (stereo unspecified)	inactive	
Oc1ccc(/C=N/Nc2ccnc3cc(Cl)ccc23)c(O)c1	inactive	

SMILES	activity change, negative = inhibition (at 26 µM (top of the series))	also measured
CO[C@H]1CN(C)C(=O)c2ccc(NC(=O)C3CC3)cc2OC[C@H](C)N(Cc2ccccc2)C[C@H]1C	inactive	
CSc1ccc(CN2CCC2(C)C(=O)Nc2cccc(NS(C)(=O)=O)c2)cc1 (stereo unspecified)	inactive	
O=C1NC2=C(C(=O)CCC2)C(c2cccc([N+](=O)[O-])c2)N1 (stereo unspecified)	inactive	
COc1cccc(C(=O)N2CCN(Cc3ccc(OC)cc3OC)CC2)c1	inactive	
C[c-]1[c-](C)[c-](C)[c-](C)[c-]1C.[Fe].c1cc2nccc(N3CCCC3)[c-]2c1 (stereo unspecified)		AC50: 5.86 µM
Cc1ccc(N2C(=O)Cc3ccccc3C2=O)cc1	inactive	
Cc1nc2ccc(NC(=O)CCC3CCCC3)cc2s1	inactive	
Cc1ccc(C)c(N2CCN(C(=O)CCCn3c(=S)[nH]c4cc5c(cc4c3=O)OCO5)CC2)c1	inactive	
COc1cccc(S(=O)(=O)N2C[C@@H]3N[C@H](C2)C3c2ccc(-c3ccccc3C)cc2)c1 (stereo partly specified)	inactive	
O=C(COC(=O)Cc1ccc(S(=O)(=O)N2CCOCC2)s1)Nc1ccc(F)cc1F	inactive	
O=C(CCOc1ccccc1)N1CCN(S(=O)(=O)c2ccccc2F)CC1	inactive	
COc1cccc(CN2CCc3[nH]c(=S)[nH]c(=O)c3C2)c1	inactive	
COc1ccc(NC(=O)Nc2ccccc2F)c([N+](=O)[O-])c1	inactive	
Cn1c(SCCOc2ccccc2Cl)nnc1-c1ccncc1	inactive	
O=C1NC(=O)C(Sc2ccccc2[N+](=O)[O-])C(=O)N1	inactive	
CCC(=O)Nc1ccc2c(c1)OC[C@@H](C)N(Cc1ccccc1)C[C@@H](C)[C@@H](OC)CN(C)C2=O	inactive	
CO[C@@H]1CN(C)C(=O)c2ccc(NC(=O)C3CC3)cc2OC[C@H](C)N(Cc2cccc(F)c2)C[C@@H]1C	inactive	
COCC(=O)Nc1ccc2c(c1)OC[C@@H](C)N(CC1CC1)C[C@H](C)[C@H](OC)CN(C)C2=O	inactive	
O=C(c1cccc(S(=O)(=O)N2CCCCCC2)c1)N1CCN(c2ccccc2F)CC1	inactive	
CC(C)CN1CCC(CN2CCNC(=O)C2=O)CC1	inactive	
